{"source": "patent US11566229B2", "about": "“Expansion and maintenance of adult primary human hepatocytes in culture” (Wisconsin Alumni Research Foundation, priority 2018, dated 2023)", "key": {"[1]": {"test_system": "mouse adult proliferating hepatocytes", "conditions": "U0126 treated mouse adult proliferating hepatocytes", "source_text": "Total RNA was qualified with Life Technologies Qubit fluorometer (Q32857) and Agilent Bioanalyzer (G2940CA). Total RNA was used to prepare indexed cDNA libraries with the Ligation Mediated Sequencing (LM-Seq) protocol (Hou, Z et al. 2015). Final indexed cDNA libraries were pooled with forty-four uniquely indexed LM-Seq cDNA libraries per lane and sequenced on an Illumina HiSeq 3000.\nWe derived SHPCs from adult mouse liver and treated them with the MAPK inhibitor U0126."}, "[2]": {"test_system": "ESC-hepatocyte derived SHPCs", "conditions": "SHPC medium, co-cultured with MEFs and U0126; QPCR, FIG. 6", "source_text": "We treated the ESC-hepatocyte derived SHPCs in SHPC medium and co-cultured with MEFs and U0126. We FAC sorted the albumin reporter expressing hepatocytes and performed QPCR."}}}
{"compound": "N#CC(=C(/N)Sc1ccccc1N)/C(C#N)=C(\\N)Sc1ccccc1N", "note": "[U0126]", "values": [{"measurement": "CYP1A2 gene expression (RNA-Seq)", "setting": "[1]; vehicle 1", "result": 78}, {"measurement": "RARA gene expression (RNA-Seq)", "setting": "[1]; vehicle 1", "result": 5}, {"measurement": "AHR gene expression (RNA-Seq)", "setting": "[1]; vehicle 4", "result": 11}, {"measurement": "UGT1A1 gene expression (RNA-Seq)", "setting": "[1]; vehicle 6", "result": 54}, {"measurement": "CYP3A16 (human fetal CYP3A4) gene expression (RNA-Seq)", "setting": "[1]; vehicle 15", "result": 2}, {"measurement": "RXRA gene expression (RNA-Seq)", "setting": "[1]; vehicle 28", "result": 40}, {"measurement": "UGT1A6A gene expression (RNA-Seq)", "setting": "[1]; vehicle 28", "result": 189}, {"measurement": "CYP1A1 gene expression (RNA-Seq)", "setting": "[1]; vehicle 36", "result": 1447}, {"measurement": "APOH gene expression (RNA-Seq)", "setting": "[1]; vehicle 128", "result": 245}, {"measurement": "HNF4A gene expression (RNA-Seq)", "setting": "[1]; vehicle 254", "result": 340}, {"measurement": "APOB gene expression (RNA-Seq)", "setting": "[1]; vehicle 332", "result": 567}, {"measurement": "CYP3A11 (human adult CYP3A4) gene expression (RNA-Seq)", "setting": "[1]; vehicle 496", "result": 563}, {"measurement": "Albumin gene expression (RNA-Seq)", "setting": "[1]; vehicle 6523", "result": 11379}, {"measurement": "increase in CYP3A expression", "setting": "[2]", "result": 3, "unit": "fold"}, {"measurement": "increase in albumin expression", "setting": "[2]", "result": 2, "unit": "fold"}]}
